Each compound was assayed on SU-DHL-4 cell line (assay: SU-DHL-4 cell proliferation assay (Cell Titer-Glo viability)). Settings: Homo sapiens; cell viability IC50 activity level, DLBCL cell line SU-DHL-4, 120 hours post-treatment; read-out: SU-DHL-4 Act.
Type: cell-based
Method: SU-DHL-4 Cell Proliferation Assay.
The following is an example of an assay that can be used to determine the anti-proliferative activity of Isoindolinedione Compounds in a DLBCL cell line, for example, the SU-DHL-4 cell line (Deutsche Sammlung von Mikroorganismen and Zellkulturen GmbH [DSMZ]: catalogue number ACC-495) at 120 hours post-treatment. The seeding density for SU-DHL-4 can be optimized to ensure assay linearity in 1536-well plates.
Increasing concentrations of test compounds (0.5 nM to 10 μM) were spotted in a 20-point dilution fashion (unevenly spaced data points) via an acoustic dispenser (EDC ATS-100) into an empty 1536-well plate. The DMSO concentration was kept constant for a final assay concentration of 0.1% DMSO. Prior to testing, SU-DHL-4 cells were grown in RPMI-1640 (Roswell Park Memorial Institute—1640) medium with 10% FBS (fetal bovine serum: HyClone) and expanded in culture flasks to provide sufficient amounts of starting material. Cells were then diluted to 500 cells per well in a 5 μL volume, and added directly to the compound-spotted 1536-well plates. Cells were allowed to grow for 120 hours in 5% CO2 at 37° C. At the time when exposure of cells to compound began (to), initial viable cell number was assessed via Cell Titer-Glo® Luminescent Cell Viability Assay at a 1 vol:2 vol ratio according to manufacturer's instructions (Promega Corporation, Madison, Wis.) by quantifying the level of luminescence generated by adenosine-5′-triphosphate (ATP) present in viable cells. After 120 hours, cell viability of the treated cells was assessed via Cell Titer-Gb® and read for luminescence. All growth inhibition curves were processed and evaluated using Activity Base (IDBS, Alameda, Calif.). Cell viability IC50 values were calculated using a four parameter logistic model (sigmoidal dose-response model): y=(A+((B−A)/(1+((C/x)^D)))) wherein: A=YMin B=YMax C=EC50 D=Hill slope IC50=the concentration of the compound when Y=50% of DMSO control Y=cell viability measured as luminescence unit, and x=concentration of compound.

IC50 [nM]	Structure (SMILES)
< 200	Cc1cc(CNc2cccc3c2C(=O)N(C2CCC(=O)NC2=O)C3=O)ccc1CN1CCC(n2cccn2)CC1 (centres unmarked) [Cpd 56, 4-(4-((4-(1H-pyrazol-1-yl)piperidin-1-yl)methyl)-3-methylbenzylamino)-2-(2,6-dioxopiperidin-3-yl)isoindoline-1,3-dione]
< 200	NC(=O)c1ccc(N2CCN(Cc3ccc(CNc4cccc5c4C(=O)N(C4CCC(=O)NC4=O)C5=O)cc3)CC2)cc1 (centres unmarked) [Cpd 57, 4-(4-(4-((2-(2,6-dioxopiperidin-3-yl)-1,3-dioxoisoindolin-4-ylamino)methyl)benzyl)piperazin-1-yl)benzamide]
< 200	NC(=O)c1ccc(N2CCN(Cc3ccc(CNc4cccc5c4C(=O)N([C@H]4CCC(=O)NC4=O)C5=O)cc3)CC2)cn1 [Cpd 58, (S)-5-(4-(4-((2-(2,6-dioxopiperidin-3-yl)-1,3-dioxoisoindolin-4-ylamino)methyl)benzyl)piperazin-1-yl)picolinamide]
< 200	Cc1cc(CNc2cccc3c2C(=O)N(C2CCC(=O)NC2=O)C3=O)ccc1CN1CCN(c2ccc(C#N)cc2C)CC1 (centres unmarked) [Cpd 60, 4-(4-(4-((2-(2,6-dioxopiperidin-3-yl)-1,3-dioxoisoindolin-4-ylamino)methyl)-2-methylbenzyl)piperazin-1-yl)-3-methylbenzonitrile]
< 200	Cc1cc(CNc2cccc3c2C(=O)N(C2CCC(=O)NC2=O)C3=O)ccc1CN1CCN(c2ccc(C#N)cc2Cl)CC1 (centres unmarked) [Cpd 61, 3-chloro-4-(4-(4-((2-(2,6-dioxopiperidin-3-yl)-1,3-dioxoisoindolin-4-ylamino)methyl)-2-methylbenzyl)piperazin-1-yl)benzonitrile]
< 200	C[C@@H]1CN(c2ccc(C#N)cc2Cl)CCN1Cc1ccc(CNc2cccc3c2C(=O)N(C2CCC(=O)NC2=O)C3=O)cc1 (stereo partly drawn) [Cpd 62, 3-chloro-4-((3R)-4-(4-((2-(2,6-dioxopiperidin-3-yl)-1,3-dioxoisoindolin-4-ylamino)methyl)benzyl)-3-methylpiperazin-1-yl)benzonitrile]
< 200	Cc1cc(CNc2cccc3c2C(=O)N(C2CCC(=O)NC2=O)C3=O)ccc1CN1CCN(c2ccc(C#N)cn2)CC1 (centres unmarked) [Cpd 63, 6-(4-(4-((2-(2,6-dioxopiperidin-3-yl)-1,3-dioxoisoindolin-4-ylamino)methyl)-2-methylbenzyl)piperazin-1-yl)nicotinonitrile]
200 to 500	O=C1CCC(N2C(=O)c3cccc(NCc4ccc(CN5CC6CC(c7ccc(F)cc7)CC6C5)cc4)c3C2=O)C(=O)N1 [Cpd 64, 2-(2,6-dioxopiperidin-3-yl)-4-(4-(((3aR,5r,6aS)-5-(4-fluorophenyl)hexahydrocyclopenta [c]pyrrol-2-(1H)-yl)methyl)benzylamino)isoindoline-1,3-dione]
200 to 500	Cc1cc(CNc2cccc3c2C(=O)N(C2CCC(=O)NC2=O)C3=O)ccc1CN1CCN(CC2CC2)CC1 (centres unmarked) [Cpd 65, 4-(4-((4-(cyclopropylmethyl)piperazin-1-yl)methyl)-3-methylbenzylamino)-2-(2,6-dioxopiperidin-3-yl)isoindoline-1,3-dione]
< 200	Cc1cc(CNc2cccc3c2C(=O)N(C2CCC(=O)NC2=O)C3=O)ccc1CN1CCN(C2CC2)CC1 (centres unmarked) [Cpd 66, 4-(4-((4-cyclopropylpiperazin-1-yl)methyl)-3-methylbenzylamino)-2-(2,6-dioxopiperidin-3-yl)isoindoline-1,3-dione]
< 200	Cc1cc(C#N)ccc1N1CCN(Cc2ccc(CNc3cccc4c3C(=O)N(C3CCC(=O)NC3=O)C4=O)cc2)[C@H](C)C1 (stereo partly drawn) [Cpd 67, 4-((3R)-4-(4-((2-(2,6-dioxopiperidin-3-yl)-1,3-dioxoisoindolin-4-ylamino)methyl)benzyl)-3-methylpiperazin-1-yl)-3-methylbenzonitrile]
< 200	Cc1cc(CNc2cccc3c2C(=O)N(C2CCC(=O)NC2=O)C3=O)ccc1CN1CCN(C(C)(C)C)CC1 (centres unmarked) [Cpd 68, 4-(4-((4-tert-butylpiperazin-1-yl)methyl)-3-methylbenzylamino)-2-(2,6-dioxopiperidin-3-yl)isoindoline-1,3-dione]
< 200	Cc1cc(CNc2cccc3c2C(=O)N(C2CCC(=O)NC2=O)C3=O)ccc1CN1CCN(C(C)C)CC1 (centres unmarked) [Cpd 69, 2-(2,6-dioxopiperidin-3-yl)-4-(4-((4-isopropylpiperazin-1-yl)methyl)-3-methylbenzylamino)isoindoline-1,3-dione]
< 200	Cc1cc(CNc2cccc3c2C(=O)N(C2CCC(=O)NC2=O)C3=O)ccc1CN1CCN(C2CCC2)CC1 (centres unmarked) [Cpd 70, 4-(4-((4-cyclobutylpiperazin-1-yl)methyl)-3-methylbenzylamino)-2-(2,6-dioxopiperidin-3-yl)isoindoline-1,3-dione]
< 200	CC(N1CCN(Cc2ccc(CNc3cccc4c3C(=O)N(C3CCC(=O)NC3=O)C4=O)cc2)CC1)C(F)(F)F (centres unmarked) [Cpd 71, 2-(2,6-dioxopiperidin-3-yl)-4-(4-((4-(1,1,1,-trifluoropropan-2-yl)piperazin-1-yl)methyl)benzylamino)isoindoline-1,3-dione]
200 to 500	O=C1CCC(N2C(=O)c3cccc(NCc4ccc(CN5CC6(CCCCC6)C5)cc4)c3C2=O)C(=O)N1 (centres unmarked) [Cpd 72, 4-(4-(2-azaspiro[3.5]nonan-2-ylmethyl)benzylamino)-2-(2,6-dioxopiperidin-3-yl)isoindoline-1,3-dione]
751 to 1000	O=C1CCC(N2C(=O)c3cccc(NCc4ccc(CN5CCC6(CCC6)C5)cc4)c3C2=O)C(=O)N1 (centres unmarked) [Cpd 73, 4-(4-(6-azaspiro[3.4]octan-6-ylmethyl)benzylamino)-2-(2,6-dioxopiperidin-3-yl)isoindoline-1,3-dione]
501 to 750	N#Cc1ccc(OC2CN(Cc3ccc(CNc4cccc5c4C(=O)N(C4CCC(=O)NC4=O)C5=O)cc3)C2)cc1 (centres unmarked) [Cpd 74, 4-(1-(4-((2-(2,6-dioxopiperidin-3-yl)-1,3-dioxoisoindolin-4-ylamino)methyl)benzyl)azetidin-3-yloxy)benzonitrile]
< 200	Cc1cc(CNc2cccc3c2C(=O)N(C2CCC(=O)NC2=O)C3=O)ccc1CN1CC2(CCCCC2)C1 (centres unmarked) [Cpd 75, 4-(4-(2-azaspiro[3.5]nonan-2-ylmethyl)-3-methylbenzylamino)-2-(2,6-dioxopiperidin-3-yl)isoindoline-1,3-dione]
200 to 500	Cc1cc(CNc2cccc3c2C(=O)N(C2CCC(=O)NC2=O)C3=O)ccc1CN1CCC2(CCC2)C1 (centres unmarked) [Cpd 76, 4-(4-(6-azaspiro[3.4]octan-6-ylmethyl)-3-methylbenzylamino)-2-(2,6-dioxopiperidin-3-yl)isoindoline-1,3-dione]
200 to 500	Cc1cc(CNc2cccc3c2C(=O)N(C2CCC(=O)NC2=O)C3=O)ccc1CN1CC(n2cccn2)C1 (centres unmarked) [Cpd 77, 4-(4-((3-(1H-pyrazol-1-yl)azetidin-1-yl)methyl)-3-methylbenzylamino)-2-(2,6-dioxopiperidin-3-yl)isoindoline-1,3-dione]
< 200	Cc1cc(CNc2cccc3c2C(=O)N(C2CCC(=O)NC2=O)C3=O)ccc1CN1CCC(OC(C)C)CC1 (centres unmarked) [Cpd 78, 2-(2,6-dioxopiperidin-3-yl)-4-(4-((4-isopropoxypiperidin-1-yl)methyl)-3-methylbenzylamino)isoindoline-1,3-dione]
200 to 500	Cc1cc(CNc2cccc3c2C(=O)N(C2CCC(=O)NC2=O)C3=O)ccc1CN1CCC(C(=O)N(C)C)CC1 (centres unmarked) [Cpd 79, 1-(4-((2-(2,6-dioxopiperidin-3-yl)-1,3-dioxoisoindolin-4-ylamino)methyl)-2-methylbenzyl)-N,N-dimethylpiperidine-4-carboxamide]

Source: US11358952B2, “Substituted 4-aminoisoindoline-1,3-dione compounds, compositions thereof, and methods of treatment therewith” (Celgene Corporation, priority 2018, dated 2022)
